pIC50: −log10 of the molar value.
Key:
[1] = biological target: T1, SCD1 (Homo sapiens, UniProt O00767); test: Growth inhibition of humanized yeast strain expressing SCD1 as sole desaturase; assay type: cell-based
T1 construct: host or cells: S. cerevisiae ole1Δ strain (W303 pdr1Δ pdr3Δ background), plasmid pRS316 with TDH3 promoter and CYC1 terminator
T1 sequence (O00767 1-359): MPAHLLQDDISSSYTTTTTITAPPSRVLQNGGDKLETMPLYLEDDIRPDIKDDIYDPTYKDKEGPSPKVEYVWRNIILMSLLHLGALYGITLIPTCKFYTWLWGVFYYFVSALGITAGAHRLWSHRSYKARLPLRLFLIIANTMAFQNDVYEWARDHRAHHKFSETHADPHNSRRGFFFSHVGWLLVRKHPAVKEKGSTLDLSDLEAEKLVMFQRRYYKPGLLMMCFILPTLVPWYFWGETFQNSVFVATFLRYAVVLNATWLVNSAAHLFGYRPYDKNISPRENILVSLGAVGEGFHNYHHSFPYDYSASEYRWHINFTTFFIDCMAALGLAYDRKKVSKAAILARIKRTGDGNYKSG
Outline: (§1)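 Yeast ole1Δ strain (W303 pdr1Δ pdr3Δ background) carrying plasmid-borne Ole1, SCD1 or SCD5 as sole desaturase was grown in uracil-lacking media, pre-cultured in raffinose for 6 h, then seeded in galactose medium with compound in DMSO. Growth was read as OD600 after 30° C. incubation: 24 h for Ole1, 40 h for SCD1/SCD5.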

[2] = biological target: T2, SCD5 (Homo sapiens, UniProt Q86SK9); test: Growth inhibition of humanized yeast strain expressing SCD5 as sole desaturase; assay type: cell-based
T2 construct: host or cells: S. cerevisiae ole1Δ strain (W303 pdr1Δ pdr3Δ background), plasmid pRS316 with TDH3 promoter and CYC1 terminator
T2 sequence (Q86SK9 1-330): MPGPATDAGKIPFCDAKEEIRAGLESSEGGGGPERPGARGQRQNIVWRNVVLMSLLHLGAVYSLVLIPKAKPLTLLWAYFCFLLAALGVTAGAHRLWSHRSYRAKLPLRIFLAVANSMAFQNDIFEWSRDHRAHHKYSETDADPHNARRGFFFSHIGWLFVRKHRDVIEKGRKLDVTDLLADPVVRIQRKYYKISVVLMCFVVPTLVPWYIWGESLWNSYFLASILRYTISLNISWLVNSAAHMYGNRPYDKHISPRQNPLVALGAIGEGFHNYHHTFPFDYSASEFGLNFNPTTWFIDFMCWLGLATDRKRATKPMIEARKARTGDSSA
Outline: as §1

[3] = growth inhibition of humanized yeast strain expressing human SCD1
[4] = growth inhibition of humanized yeast strain expressing human SCD5
[5] = humanized yeast strain expressing SCD1
[6] = humanized yeast strain expressing SCD5

Row | Compound | pIC50 ([1]; humanized yeast strain, 40 h) | pIC50 ([2]; humanized yeast strain, 40 h) | also measured
1 | CC1(CC(=O)N2CCN(c3nc(-c4ccc5cnn(C6COC6)c5c4)no3)CC2)CC1 [Compound 693] | – | – | pIC50 [1, 3]: < 4.35; pIC50 [2, 4]: 5.78
2 | CC(C)n1ncc2ccc(-c3noc(C4CCN(C(=O)OC5(C)CC5)CC4(F)F)n3)cc21 (centres unmarked) [Compound 584] | – | – | pIC50 [1, 5]: < 4.35; pIC50 [2, 6]: 5.27
3 | CC(C)(C)OC(=O)N1CC=C(c2cnc(-c3ccc4cnn(C5COC5)c4c3)nc2)CC1 [Compound 984] | < 4.35 | < 4.35 | –
4 | COC(=O)N1CCC(c2nc(-c3ccc4cnn(C5CCOC5)c4c3)no2)CC1 (centres unmarked) [Compound 776] | < 4.35 | 7.60 | –
5 | Cc1nn(C)c2cc(-c3noc(C4CCN(C(=O)CN)CC4(F)F)n3)ccc12 (centres unmarked) [Compound 665] | – | – | pIC50 [1, 3]: < 4.35; pIC50 [2, 4]: 5.30
6 | CC(C)n1ncc2ccc(N3CC4(CCN(C(=O)OC(C)(C)C)CC4)OC3=O)cc21 [Compound 515] | – | – | pIC50 [1, 5]: 4.78; pIC50 [2, 6]: < 4.35
7 | CC(C)(C)OC(=O)N1CCC(c2ccc(-c3ccc4cnn(C5COC5)c4c3)cc2)CC1 [Compound 967] | < 4.35 | 5.82 | –
8 | CC(C)c1noc2ccc(-c3noc(C4CCN(C(=O)C5CCC5)CC4)n3)cc12 [Compound 968] | < 4.35 | 5.55 | –
9 | COC(=O)N1CCC(c2noc(-c3ccc4cnc(C5COC5)n4c3)n2)CC1 [Compound 917] | < 4.35 | 7.00 | –
10 | CC(C)n1ncc2ccc(-c3nc(C4CN(C(=O)OC(C)(C)C)C4)no3)cc21 [Compound 605] | – | – | pIC50 [1, 5]: 4.50; pIC50 [2, 6]: 6.29
11 | O=C(C1CCC1)N1CCN(c2noc(-c3ccc4cnn(C5COC5)c4c3)n2)CC1 [Compound 838] | < 4.35 | 7.68 | –
12 | CC(C)(C)OC(=O)N1CC=C(c2nc(-c3ccc4cnn(C5COC5)c4c3)ns2)CC1 [Compound 633] | – | – | pIC50 [1, 3]: < 4.35; pIC50 [2, 4]: 6.67
13 | COC(=O)N1CCC(c2nc(-c3ccc4c(c3)N(C(C)C)C(=O)C4)no2)CC1 [Compound 627] | – | – | pIC50 [1, 3]: < 4.35; pIC50 [2, 4]: 5.17
14 | Cc1nnc(N2CCC(c3nc(-c4ccc5cnn(C(C)C)c5c4)no3)CC2)o1 [Compound 704] | – | – | pIC50 [1, 3]: < 4.35; pIC50 [2, 4]: 5.78
15 | O=C(CC1CC1)N1CCC(c2noc(-c3ccc4cnn(C5CCOC5)c4c3)n2)CC1 (centres unmarked) [Compound 974] | < 4.35 | 8.00 | –
16 | CC(C)(C)OC(=O)N1CCC(c2nc(-c3ccc4cnn([C@H]5C[C@H](OC(=O)c6ccc([N+](=O)[O-])cc6)C5)c4c3)no2)CC1 [Compound 847] | < 4.35 | < 4.35 | –
17 | CC(C)n1ncc2ccc(-c3noc(C4CCN(C(=O)C56CC(F)(C5)C6)CC4)n3)cc21 [Compound 756] | < 4.35 | 5.36 | –
18 | COC(=O)N1CCCN(c2noc(-c3cc(F)c4cnn(C5COC5)c4c3)n2)CC1 [Compound 963] | < 4.35 | 6.80 | –
19 | CC(C)C(=O)N1CC[C@@H](c2noc(-c3ccc4cnn(C5COC5)c4c3)n2)C[C@@H]1C [Compound 1055] | < 4.35 | 8.31 | –

Row | Compound | pIC50 ([1]; humanized yeast strain, 40 h) | pIC50 ([2]; humanized yeast strain, 40 h) | also measured
20 | CC(C)n1ncc2ccc(-c3noc(C4CCN(C(=O)CNC(=O)c5cccc(C#N)c5)CC4(F)F)n3)cc21 (centres unmarked) [Compound 523] | – | – | pIC50 [1, 5]: < 4.35; pIC50 [2, 6]: < 4.35
21 | CC(C)(C)OC(=O)N1CCC(c2nc(-c3ccc4cnc(Br)n4c3)no2)CC1 [Compound 865] | < 4.35 | 8.00 | –
22 | CC(C)n1ncc2ccc(-c3noc(C4CCN(C(=O)C56CC(C5)C6)CC4)n3)cc21 [Compound 705] | – | – | pIC50 [1, 3]: 4.84; pIC50 [2, 4]: 6.76
23 | COC(=O)N1CCC(c2noc(-c3ccc4cnn(C5CCN(C)C5=O)c4c3)n2)CC1 (centres unmarked) [Compound 1101] | 4.57 | 4.78 | –
24 | COC(=O)N1CCC(c2nc(-c3ccc4cn[nH]c4c3)no2)CC1 [Compound 936] | < 4.35 | 5.46 | –
25 | O=C(N1CCC(c2noc(-c3ccnc(C4CCOC4)c3)n2)CC1)C1(F)CC1 (centres unmarked) [Compound 1087] | < 4.35 | 7.39 | –
26 | CC(C)(C)OC(=O)N1CCC(c2nc(-c3ccc4cnc(C5COC5)n4c3)no2)CC1 [Compound 811] | < 4.35 | 6.17 | –
27 | CC(C)(C)OC(=O)N1CCN(c2noc(-c3ccnc(N4CCOCC4)c3)n2)CC1 [Compound 943] | < 4.35 | < 4.35 | –
28 | CC(C)(C)OC(=O)N1CCC(c2nc(N3CCC34COC4)no2)CC1 [Compound 783] | < 4.35 | < 4.35 | –
29 | CC(C)(C)OC(=O)N1CCC(c2nc(-c3ccc4cnn([C@H]5CCOC5)c4c3)no2)CC1 [Compound 791] | < 4.35 | 8.00 | –
30 | CC(C)C(=O)N1CCC(c2nc(-c3ccc4cnn(C5COC5)c4c3)no2)CC1 [Compound 1023] | < 4.35 | 6.53 | –
31 | CC(C)n1ncc2ccc(-c3nc(N4CCN(C(=O)OC5(C)CC5)CC4)no3)cc21 [Compound 682] | – | – | pIC50 [1, 3]: < 4.35; pIC50 [2, 4]: 8.00
32 | COC(=O)N1CC(c2noc(-c3ccc4cnn(C5COC5)c4c3)n2)C1 [Compound 928] | < 4.35 | 8.00 | –
33 | CC(C)n1ncc2ccc(-c3noc(C4CCN(C(=O)CNC(=O)OC(C)(C)C)CC4(F)F)n3)cc21 (centres unmarked) [Compound 525] | – | – | pIC50 [1, 5]: < 4.35; pIC50 [2, 6]: < 4.35
34 | CC(C)n1ncc2ccc(-c3noc(C4CCN(S(=O)(=O)C5CCCCC5)CC4)n3)cc21 [Compound 673] | – | – | pIC50 [1, 3]: < 4.35; pIC50 [2, 4]: 4.47
35 | CNC(=O)OC1CCC(c2nc(-c3ccc4cnn(C(C)C)c4c3)no2)CC1 (centres unmarked) [Compound 608] | – | – | pIC50 [1, 3]: < 4.35; pIC50 [2, 4]: < 4.35
36 | COC(=O)N1CCC(c2nc(-c3ccnc(Cl)c3)no2)CC1 [Compound 734] | – | – | pIC50 [1, 3]: < 4.35; pIC50 [2, 4]: < 4.35
37 | COC(=O)N1CC[C@H](c2noc(-c3ccc4cnn(C5COC5)c4c3)n2)C[C@H]1C [Compound 1059] | < 4.35 | 8.65 | –
38 | O=C(C1CCC1)N1CCC(c2cc(-c3cc4c(cn3)cnn4C3COC3)on2)CC1 [Compound 1109] | < 4.35 | 7.30 | –

Row | Compound | pIC50 ([1]; humanized yeast strain, 40 h) | pIC50 ([2]; humanized yeast strain, 40 h) | also measured
39 | COCCOC(=O)N1CCC(c2noc(-c3ccc4cnn(C5COC5)c4c3)n2)CC1 [Compound 929] | < 4.35 | 5.35 | –
40 | Cc1nn(C)c2cc(-c3noc(C4CN(C(=O)OC(C)(C)C)C4)n3)ccc12 [Compound 365] | – | – | SCD1 % Max Inhibition [1, 5]: 58.08%; pIC50 [2, 6]: < 4.35; SCD5 % Max Inhibition [2, 6]: 23.74%
41 | CC(C)(C)OC(=O)N1CCC(c2noc(-c3ccnc(CC4CC4)c3)n2)CC1 [Compound 1082] | < 4.35 | 6.44 | –
42 | COC(=O)N1CCC(c2nnc(-c3ccc4cnn(C5COC5)c4c3)o2)CC1 [Compound 871] | < 4.35 | 5.02 | –
43 | CC(C)C(=O)N1CCC(c2noc(-c3cccc(N4CCOCC4)c3F)n2)CC1 [Compound 1160] | < 4.35 | < 4.35 | –
44 | CC(C)(C)OC(=O)N1CCC(c2nc(-c3ccc4cn(C5CCC5)nc4c3)no2)CC1 [Compound 731] | – | – | pIC50 [1, 3]: < 4.35; pIC50 [2, 4]: < 4.35
45 | COC(=O)N1CCC(c2nc(-c3ccnc(NC(C)C)c3)no2)CC1 [Compound 815] | < 4.35 | < 4.35 | –
46 | COC(=O)N1CC2(CC(c3noc(-c4ccc5cnn(C6COC6)c5c4)n3)C2)C1 [Compound 1032] | < 4.35 | 5.39 | –
47 | CC(C)(C)OC(=O)N1CCC(c2noc(-c3cc(N4CCOCC4)ccc3F)n2)CC1 [Compound 1156] | < 4.35 | 6.31 | –
48 | CC(C)n1ncc2ccc(-c3nc(C4CCN(C(=O)OC5(C)CC5)CC4)no3)cc21 [Compound 628] | – | – | pIC50 [1, 3]: < 4.35; pIC50 [2, 4]: 8.00
49 | COC(=O)N1CCC(c2noc(-c3ccc4cnn([C@H]5CCOC5)c4c3)n2)CC1 [Compound 878] | < 4.35 | 8.30 | –
50 | CC(C)C(=O)N1CCC(c2noc(-c3ccnc(N(C)C4COC4)c3)n2)CC1 [Compound 1155] | < 4.35 | < 4.35 | –
51 | CC(C)(C)OC(=O)N1CCC(c2noc(-c3cnc4cnn(C5COC5)c4c3)n2)CC1 [Compound 1047] | ≤ 4.35 | 8.00 | –
52 | O=C(CC1CC1)N1CCN(c2noc(-c3ccc4cnn(C5COC5)c4c3)n2)CC(F)(F)C1 [Compound 1035] | < 4.35 | 6.58 | –
53 | CC(C)n1ncc2ccc(-c3noc(C4CCN(C(=O)CNC(=O)c5ccccc5)CC4(F)F)n3)cc21 (centres unmarked) [Compound 519] | – | – | pIC50 [1, 5]: < 4.35; pIC50 [2, 6]: < 4.35
54 | Cc1nn(C)c2cc(-c3noc(C4CCN(C(=O)CCC(F)(F)F)CC4)n3)ccc12 [Compound 677] | – | – | pIC50 [1, 3]: < 4.35; pIC50 [2, 4]: < 4.35
55 | COCCc1nn(C(C)C)c2cc(-c3noc(C4CCN(C(=O)OC(C)(C)C)CC4)n3)ccc12 [Compound 702] | – | – | pIC50 [1, 3]: < 4.35; pIC50 [2, 4]: < 4.35
56 | CC(C)(C)OC(=O)N1C[C@@H]2[C@H](C1)[C@H]2C(=O)NCc1ccc2[nH]ncc2c1 [Compound 794] | < 4.35 | < 4.35 | –

— patent US11873298B2, “Compounds and uses thereof” (JANSSEN PHARMACEUTICA NV, priority 2017, dated 2024)
